Earlier results, collected in patent US20240148693A1, “COMPOSITION, PREPARATION METHOD THEREFOR, AND USE THEREOF” (CHANGSHA JINGYI PHARMACEUTICAL TECHNOLOGY CO., LTD, priority 2021, published 2024).

System: synaptic vesicle glycoprotein 2A (SV2A)
Settings: preclinical animal experiments

**Q.** For CCC[C@@H]1CC(=O)N([C@@H](CC)C(N)=O)C1 [Brivaracetam], which “Affinity for SV2A relative to levetiracetam” value is on record?
**A.** Its value is 15-30 times.
